Series [1] relates to E. coli CDC-151 (NDM-5), PBP3 mutations. The experiment in a line: MIC, broth microdilution. Type of series: cell-based. The following applies: Escherichia coli, fixed BLI concentration (μg/mL) in parentheses in label. A general note: Broth dilution looks for growth in wells or tubes with falling amounts of substance.
Series [2] concerns E. coli CDC-137 (NDM-6), PBP3 mutations. The experiment in a line: MIC, broth microdilution. Type of series: cell-based. The following applies: Escherichia coli, fixed BLI concentration (μg/mL) in parentheses in label.
Series [3] concerns E. coli CDC-162 (NDM-7), PBP3 mutations. The experiment in a line: MIC, broth microdilution. In kind it is cell-based. The following applies: Escherichia coli.
The subject of series [4] is E. coli CDC-149 (NDM-7), PBP3 mutations. Briefly: MIC, broth microdilution. In kind it is cell-based. The following applies: Escherichia coli.
In series [5] the test system is Cefepime/taniborbactam-nonsusceptible Enterobacterales with metallo-carbapenemases (25). The experiment in a line: MIC, broth microdilution. In kind it is cell-based. The following applies: CDC AR Bank, fixed concentration (μg/mL) in label.
Series [6] concerns E. coli CDC-119 (NDM-1), PBP3 mutations. Briefly: MIC, broth microdilution. Type of series: cell-based. Conditions: Escherichia coli.
Series [7] relates to MEM-nonsusceptible Enterobacterales with metallo-carbapenemases. The experiment in a line: MIC, broth microdilution. Type of series: cell-based. The following applies: MEM-nonsusceptible Enterobacterales with metallo-carbapenemases (41), CDC AR Bank, fixed concentration (μg/mL) in label.
For series [8], the system named is E. coli CDC-150 (NDM-5), PBP3 mutations. The experiment in a line: MIC, broth microdilution. In kind it is cell-based. Conditions: Escherichia coli, fixed BLI concentration (μg/mL) in parentheses in label.
Series [9] has as its system E. coli CDC-435 (NDM-1), PBP3 mutations. Briefly: MIC, broth microdilution. Type of series: cell-based. The following applies: Escherichia coli, fixed BLI concentration (μg/mL) in parentheses in label.
Series [10] concerns Acinetobacter baumannii (46). Briefly: MIC, broth microdilution. Type of series: cell-based.
Series [11] deals with MBL-producing isolates (Enterobacterales). Briefly: MIC, broth microdilution. In kind it is cell-based. The following applies: Enterobacterales with metallo-carbapenemases (47), CDC AR Bank, fixed concentration (μg/mL) in label.
For series [12] the following is noted: in humans; cited from earlier work.
[13] abbreviates: CLSI breakpoints, marked c: breakpoints for β-lactam alone.
Where [14] appears, read: fixed concentration (μg/mL) in label.

The values below come from PMC11620503 (Antimicrobial Agents and Chemotherapy, 2024).

The term MIC denotes the lowest concentration found to suppress growth. The term MIC50 denotes the lowest concentration that inhibits either 50% of growth or 50% of the strains tested, depending on the study. For orientation: MIC90 means an inhibitory concentration at the 90% level, which refers to growth in some studies and to a panel of isolates in others.

Values after ≈ are worked out from the molar mass of the structure shown.

As to `CO/N=C(\C(=O)N[C@@H]1C(=O)N2C(C(=O)[O-])=C(C[N+]3(C)CCCC3)CS[C@H]12)c1csc(N)n1` [FEP, cefepime], the MIC in series [1], in series [2], in series [3], in series [4], in series [6] and in series [8] was more than 64 µg/mL throughout. Moreover, the MIC in [9] was more than 64 µg/mL. In addition, the MIC50 in series [5] was more than 64 µg/mL; in series [7] (read-out: MIC50) it was more than 64 µg/mL; in series [10] (setting [14]) it was 64 µg/mL (≈ 133 µM); in series [11] (read-out: MIC50), more than 64 µg/mL. Also, the MIC90 in [5] is more than 64 µg/mL; in series [7] (read-out: MIC90) it was more than 64 µg/mL; in series [10] (setting [14]), more than 256 µg/mL; in series [11] (read-out: MIC90), more than 64 µg/mL. Further, the “CLSI MIC interpretation I (intermediate)” value in series [10] (setting [13]) came out at 4.3%. Also, in [10] (setting [13]), the “CLSI MIC interpretation R (resistant)” value stood at 95.7%. Also, the “CLSI MIC interpretation S (susceptible)” value in series [10] (setting [13]) is reported as 0%.
On to `O=C(O)c1c(F)ccc2c1OB(O)[C@@H]1C[C@H]21` [xeruborbactam], for which the protein binding rate entry in [12] is listed as “over 90%”.
